Data on two compounds can be found in the NIST ThermoML archive (doi:10.1016/j.jct.2013.07.026).

For data set [1] the following is noted: Crystal, Calculated from knudsen effusion weight loss.
A short description of data set [2]: molar enthalpy of vaporization or sublimation. As to conditions: 298.15 K; Crystal; Static calorimetry.

Values joined by “and” are separate entries in the source; they are usually repeats but may differ in a detail not shown here. Identical values can stand only once. ± gives the expanded uncertainty stated by the source.

For the compound `O=C(CCl)c1ccc(Cl)cc1` [2,4'-dichloroacetophenone], the “vapor or sublimation pressure” value in data set [1] (301.2 K) is 8.5e-05 ± 4e-06 kPa and 7.6e-05 ± 4e-06 kPa and 7.9e-05 ± 4e-06 kPa; in data set [1] (303.19 K), 9.9e-05 ± 5e-06 kPa and 0.000105 ± 5e-06 kPa and 0.000103 ± 5e-06 kPa; in data set [1] (305.1 K), 0.000133 ± 7e-06 kPa and 0.000131 ± 7e-06 kPa and 0.000134 ± 7e-06 kPa; in data set [1] (307.19 K) it was 0.000165 ± 8e-06 kPa and 0.000178 ± 9e-06 kPa; in data set [1] (309.18 K) it was 0.000218 ± 1.1e-05 kPa and 0.000214 ± 1.1e-05 kPa and 0.000221 ± 1.1e-05 kPa; in data set [1] (311.1 K), 0.00027 ± 1.4e-05 kPa and 0.000271 ± 1.4e-05 kPa and 0.000278 ± 1.4e-05 kPa. Further, the “vapor or sublimation pressure” value in data set [1] (313.19 K) is 0.000344 ± 1.7e-05 kPa and 0.000341 ± 1.7e-05 kPa and 0.000359 ± 1.8e-05 kPa; in data set [1] (315.19 K), 0.000447 ± 2.2e-05 kPa and 0.000437 ± 2.2e-05 kPa and 0.000448 ± 2.2e-05 kPa; in data set [1] (317.1 K), 0.000561 ± 2.8e-05 kPa and 0.000553 ± 2.8e-05 kPa and 0.000562 ± 2.8e-05 kPa; in data set [1] (319.18 K) it was 0.000699 ± 3.5e-05 kPa and 0.000686 ± 3.4e-05 kPa and 0.000757 ± 3.8e-05 kPa; in data set [1] (321.15 K) it was 0.000903 ± 4.5e-05 kPa and 0.000911 ± 4.6e-05 kPa and 0.000875 ± 4.4e-05 kPa; in data set [1] (323.09 K) it was 0.001131 ± 0.00012 kPa and 0.001115 ± 0.00011 kPa and 0.001107 ± 0.00011 kPa.
Take `O=C(CCl)c1ccccc1` [2-chloroacetophenone]: in data set [2], the molar enthalpy stood at 87.7 ± 1.7 kJ/mol.

A word on the vapor or sublimation pressure: it is the pressure of vapour in equilibrium with the condensed phase.
